One series deals with T1, integrin α5β1 (Homo sapiens, UniProt P05556+P08648).
T1 construct: purchased Chemicon, Millipore
The series is described as follows: Isolated receptor binding assay, immobilised integrin, [125I]echistatin displacement. To be noted: for Ki: immobilized integrin; for Suppression of the binding of [125I]echistatin to immobilised integrin α5β1: result in words. The protocol:
(§1) The receptor binding assay was performed following the procedure described previously. In brief, commercially available purifiedα v β 3,α 5 β 1, orα IIb β 3 (Triton X-100 formulation, Chemicon, Millipore) was diluted in coating buffer (25 mM Tris-HCl, 150 mM NaCl, 1 mM CaCl2, 0.5 mM MgCl2, 1 mM MnCl2, pH 7.4), and an aliquot of 100 μL/well, corresponding to 25 ng/wellα v β 3, 100 ng/wellα 5 β 1, or 50 ng/wellα IIb β 3, was added to a 96-well microtiter plate (Maxisorb, Nunc, Wiesbaden, Germany) and incubated at 4°C overnight. The cells were incubated for two hours with blocking buffer (200 μL, coating buffer containing 1% (w/v) bovine serum albumin (BSA)) at room temperature. After washing twice with binding buffer (coating buffer with 0.1% (w/v) BSA) the cells were incubated in the presence of the competing ligand (90 μL, 0.5 pM to 500 nM echistatin; 0.05 nM to 50 μM peptide in binding buffer) with [^125I]echistatin (0.37 kBq/well, 10 μL, 0.05 nM; PerkinElmer, Germany) for 3 h. Afterwards, the cells were washed three times with binding buffer, and bound [^125I]echistatin was solubilised with warm NaOH (2 M). The radioactivity in the resulting samples was measured by a γ-counter. Each data point represents the mean from three cells. All measurements were repeated at least once. K i values were calculated using the software program GraphPad PRISM (GraphPad Software Inc., CA, USA).
(§2) The binding affinities were determined using isolated receptor binding assays where the different integrins (α 5 β 1,α v β 3, andα IIb β 3) were immobilised and [^125I]echistatin was replaced by increasing amounts of the different peptides tested. […] Introduction of the (RS)-2-fluoropropionic acid at the N-terminus of the peptide reduced the binding affinity by a factor of approx. 10.

The format of series [1] is in vitro ADME, human. The protocol: The protein binding studies were carried out by incubating [^18F]FProp-C^*RRETAWAC^*-OH (1 MBq/mL) in fresh human serum at 37°C for different time points (30, 60, and 120 min). After incubation, the solution was passed through a spin column (MicroSpin G-50 columns; GE Healthcare, Buckinghamshire, United Kingdom). Protein binding was determined by measuring the activity fixed on the column and the activity in the eluate in the gamma counter. As control [^18F]FProp-C^*RRETAWAC^*-OH was incubated at the same concentration for 60 min in PBS instead of serum.

The format of series [2] is in vitro ADME, human. The protocol:
For stability studies, [^18F]FProp-C^*RRETAWAC^*-OH (approx. 2 MBq/mL) was incubated in human serum for 30, 60, and 120 min at 37°C. At each time point, aliquots of 100 μL were taken and proteins were precipitated using 150 μL acetonitrile. The suspension was treated for 5 min with ultrasound and subsequently centrifuged. The supernatant was diluted with water and analysed by HPLC.
This is another data set of the same source.

Series [3] concerns DU145 human prostate carcinoma cells (αvβ3-negative and α5β1-positive). The series is described as follows: Cell uptake study with/without blocking by H-C*RRETAWAC*-OH. The format is cell-based. The following applies: 37°C, with or without excess H-C*RRETAWAC*-OH. The protocol: (§3) M21 (α v β 3-positive andα 5 β 1-negative), […] (α v β 3-negative andα 5 β 1-positive), and M21L (both receptors negative) cells were maintained in Gibco RPMI 1640 (Life Technologies, Carlsbad, CA) containing 1% glutamine, 10% (v/v) fetal calf serum (FCS), and 1% penicillin/streptomycin/glutamine and grown in tissue culture flasks (Cellstar; Greiner Bio-One, Kremsmuenster, Austria) at 37°C in a humidified atmosphere of 5% CO2 (v/v). For cell uptake studies, cells were trypsinised, washed twice with binding buffer (10 mM HEPES (pH 7.4), 150 mM NaCl, 2 mM MnCl2, 0.1% BSA), and aliquots of 0.9 mL containing 2 × 10^6 cells were transferred to Eppendorf tubes. After addition of 50 μL radiotracer (>100,000 cpm), cells were incubated at 37°C for 120 min in triplicate with either 50 μL PBS with 0.5% BSA (unblocked) or 50 μL of 50 μM H-C^*RRETAWAC^*-OH in PBS/0.5% BSA (blocked), respectively.
(§4) Incubation was stopped by centrifugation (2 min, 1000 rpm); medium was removed and cells were washed twice with 1 mL ice-cold binding buffer. […] Cells were lysed by treatment in 1 N NaOH and […] radioactivity was collected (internalised radioligand fraction). Protein content in the NaOH fraction was determined using spectrophotometric determination with Bradford reagent (Sigma Aldrich, Vienna, Austria). Internalised radioactivity was expressed as percentage of total activity per mg protein.

Series [4] concerns M21-L human melanoma cells (both receptors negative). The description is as above. The format is cell-based. The following applies: 37°C, with or without excess H-C*RRETAWAC*-OH. As to the method:
as §3, §4

The target in another series is T2, integrin αIIbβ3 (Homo sapiens, UniProt P05106+P08514).
T2 construct: purchased Chemicon, Millipore
T2 sequence (P08514 32-887 limits assumed): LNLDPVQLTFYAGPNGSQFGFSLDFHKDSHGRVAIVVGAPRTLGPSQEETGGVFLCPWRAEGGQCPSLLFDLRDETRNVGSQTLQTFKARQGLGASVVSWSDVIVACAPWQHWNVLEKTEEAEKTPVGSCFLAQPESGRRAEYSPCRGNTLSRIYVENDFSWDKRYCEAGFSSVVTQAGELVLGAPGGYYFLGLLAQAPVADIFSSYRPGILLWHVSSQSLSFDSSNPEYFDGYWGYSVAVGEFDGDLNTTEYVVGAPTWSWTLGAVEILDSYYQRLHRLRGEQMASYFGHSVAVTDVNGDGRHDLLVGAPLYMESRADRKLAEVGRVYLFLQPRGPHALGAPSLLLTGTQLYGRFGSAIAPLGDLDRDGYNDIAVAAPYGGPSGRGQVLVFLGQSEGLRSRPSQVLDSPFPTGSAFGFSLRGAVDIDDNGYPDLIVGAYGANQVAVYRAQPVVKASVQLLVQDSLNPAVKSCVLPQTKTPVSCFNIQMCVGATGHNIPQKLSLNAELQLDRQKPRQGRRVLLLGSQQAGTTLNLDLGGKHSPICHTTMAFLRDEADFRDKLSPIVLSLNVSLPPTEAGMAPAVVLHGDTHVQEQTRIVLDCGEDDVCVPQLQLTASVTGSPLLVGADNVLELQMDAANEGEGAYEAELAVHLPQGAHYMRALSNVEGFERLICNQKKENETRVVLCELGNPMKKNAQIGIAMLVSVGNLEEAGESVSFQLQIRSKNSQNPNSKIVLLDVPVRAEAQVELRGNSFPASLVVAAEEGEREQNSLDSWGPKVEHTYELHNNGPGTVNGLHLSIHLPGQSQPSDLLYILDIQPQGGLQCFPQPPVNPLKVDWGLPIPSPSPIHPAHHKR
T2 sequence (P08514 891-1039 partner limits assumed): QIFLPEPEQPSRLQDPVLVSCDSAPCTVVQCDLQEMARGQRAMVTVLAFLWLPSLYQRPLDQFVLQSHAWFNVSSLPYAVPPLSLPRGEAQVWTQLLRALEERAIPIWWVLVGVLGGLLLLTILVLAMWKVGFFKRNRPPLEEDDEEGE
T2 sequence (P05106 27-788): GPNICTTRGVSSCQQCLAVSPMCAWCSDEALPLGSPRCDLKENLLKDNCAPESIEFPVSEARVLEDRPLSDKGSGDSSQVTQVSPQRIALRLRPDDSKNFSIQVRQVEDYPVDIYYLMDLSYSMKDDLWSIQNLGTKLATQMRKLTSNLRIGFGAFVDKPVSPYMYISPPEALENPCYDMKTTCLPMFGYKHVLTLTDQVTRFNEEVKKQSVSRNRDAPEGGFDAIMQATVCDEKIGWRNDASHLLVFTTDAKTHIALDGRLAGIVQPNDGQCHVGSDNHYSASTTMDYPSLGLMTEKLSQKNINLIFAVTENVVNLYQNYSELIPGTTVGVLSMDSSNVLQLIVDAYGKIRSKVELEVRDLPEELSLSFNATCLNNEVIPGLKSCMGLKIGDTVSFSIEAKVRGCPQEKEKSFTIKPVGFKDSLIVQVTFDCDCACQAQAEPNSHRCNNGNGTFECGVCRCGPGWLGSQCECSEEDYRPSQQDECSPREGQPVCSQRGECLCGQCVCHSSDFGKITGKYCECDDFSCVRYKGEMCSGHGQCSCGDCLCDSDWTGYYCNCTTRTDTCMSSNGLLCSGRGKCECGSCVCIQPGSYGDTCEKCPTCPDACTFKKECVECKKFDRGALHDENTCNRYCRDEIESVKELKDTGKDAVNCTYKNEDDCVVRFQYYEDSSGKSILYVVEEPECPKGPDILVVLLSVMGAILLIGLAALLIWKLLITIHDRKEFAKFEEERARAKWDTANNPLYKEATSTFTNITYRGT
The series is described as follows: Isolated receptor binding assay, immobilised integrin, [125I]echistatin displacement. As to the method:
as §1, §2

The target of the next series is T3, integrin αvβ3 (Homo sapiens, UniProt P05106+P06756).
T3 construct: purchased Chemicon, Millipore
T3 sequence (P06756 31-889 limits assumed): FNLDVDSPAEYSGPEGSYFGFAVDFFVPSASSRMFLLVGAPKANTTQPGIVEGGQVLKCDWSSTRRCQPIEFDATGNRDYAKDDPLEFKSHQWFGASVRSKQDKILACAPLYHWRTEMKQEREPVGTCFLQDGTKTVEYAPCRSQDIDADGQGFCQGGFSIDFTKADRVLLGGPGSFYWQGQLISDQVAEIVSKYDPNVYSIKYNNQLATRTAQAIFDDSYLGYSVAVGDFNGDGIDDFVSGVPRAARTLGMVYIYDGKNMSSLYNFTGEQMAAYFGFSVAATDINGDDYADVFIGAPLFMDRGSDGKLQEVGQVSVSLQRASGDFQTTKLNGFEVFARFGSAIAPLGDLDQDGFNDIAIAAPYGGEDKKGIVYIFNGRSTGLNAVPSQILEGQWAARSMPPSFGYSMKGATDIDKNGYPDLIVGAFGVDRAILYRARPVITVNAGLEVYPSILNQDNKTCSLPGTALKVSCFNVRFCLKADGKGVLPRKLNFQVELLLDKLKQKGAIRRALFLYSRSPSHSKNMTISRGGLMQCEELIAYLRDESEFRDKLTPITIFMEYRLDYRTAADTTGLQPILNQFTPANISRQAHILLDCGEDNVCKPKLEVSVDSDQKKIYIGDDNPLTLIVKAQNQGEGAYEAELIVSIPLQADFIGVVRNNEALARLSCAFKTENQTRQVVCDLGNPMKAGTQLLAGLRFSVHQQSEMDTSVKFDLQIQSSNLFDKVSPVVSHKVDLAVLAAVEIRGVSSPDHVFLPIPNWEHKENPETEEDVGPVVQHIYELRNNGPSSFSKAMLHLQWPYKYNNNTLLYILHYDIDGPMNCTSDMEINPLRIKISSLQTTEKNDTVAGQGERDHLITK
T3 sequence (P06756 891-1048 partner limits assumed): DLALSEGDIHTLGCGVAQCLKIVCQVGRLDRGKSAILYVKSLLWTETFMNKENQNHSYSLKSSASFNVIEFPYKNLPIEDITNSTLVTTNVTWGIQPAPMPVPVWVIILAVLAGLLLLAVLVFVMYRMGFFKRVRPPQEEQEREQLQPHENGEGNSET
T3 sequence (P05106 27-788): as the sequence (P05106 27-788) above
The series is described as above. The protocol:
as §1, §2

A further series deals with α5β1. Further details: method as in PMID 7507494. To be noted: read-out: IC50, inhibition of binding of fibronectin to α5β1; cited from earlier work.
[5] abbreviates: average and standard deviation of the mean, or bound with n = 2, 125I-echistatin, read-out: Binding affinity (Ki) α5β1.
Setting [6] is: single determinations, 125I-echistatin as radioligand, read-out: Binding affinity (Ki) α5β1.
Where [7] appears, read: Binding affinity (Ki) α5β1, average and standard deviation of the mean, or bound with n = 2, 125I-echistatin.
[8] abbreviates: Binding affinity (Ki) α5β1, single determinations, 125I-echistatin as radioligand.

Where “and” joins values, the source holds several entries; their conditions need not be identical. Equal values may be shown once. Read-outs that look alike come from different tables or passages of the source. Where a SMILES comes first, the peptide text is derived from it. Bridges are numbered along the chain shown (N, C = ends). The star is where a group is joined. Propanoyl(2-F) = CC(F)C(=O)* Bounds are passed on as bounds.

T1 sequence (P08648 42-894 limits assumed): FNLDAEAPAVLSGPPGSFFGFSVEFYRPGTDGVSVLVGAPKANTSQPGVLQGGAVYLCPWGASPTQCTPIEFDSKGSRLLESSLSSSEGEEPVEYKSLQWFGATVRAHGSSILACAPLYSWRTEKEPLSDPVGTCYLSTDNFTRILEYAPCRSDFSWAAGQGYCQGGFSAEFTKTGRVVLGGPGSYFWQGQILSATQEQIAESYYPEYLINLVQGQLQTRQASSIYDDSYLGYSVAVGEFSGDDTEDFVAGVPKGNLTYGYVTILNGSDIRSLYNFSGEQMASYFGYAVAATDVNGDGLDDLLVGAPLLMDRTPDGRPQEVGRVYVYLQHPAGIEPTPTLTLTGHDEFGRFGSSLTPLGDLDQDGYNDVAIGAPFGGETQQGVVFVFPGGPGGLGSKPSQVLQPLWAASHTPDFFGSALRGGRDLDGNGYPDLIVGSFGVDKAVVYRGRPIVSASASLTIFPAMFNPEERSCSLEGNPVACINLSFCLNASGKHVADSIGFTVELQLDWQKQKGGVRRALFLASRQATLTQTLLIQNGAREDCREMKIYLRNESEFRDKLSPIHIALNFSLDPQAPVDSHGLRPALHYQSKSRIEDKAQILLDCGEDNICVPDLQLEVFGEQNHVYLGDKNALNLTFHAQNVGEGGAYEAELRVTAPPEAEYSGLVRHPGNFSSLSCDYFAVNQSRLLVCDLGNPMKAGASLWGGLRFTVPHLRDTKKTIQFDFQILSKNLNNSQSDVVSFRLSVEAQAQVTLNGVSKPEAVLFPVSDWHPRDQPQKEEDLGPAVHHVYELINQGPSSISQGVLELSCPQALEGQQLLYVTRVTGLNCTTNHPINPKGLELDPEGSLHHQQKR
T1 sequence (P08648 895-1049 partner limits assumed): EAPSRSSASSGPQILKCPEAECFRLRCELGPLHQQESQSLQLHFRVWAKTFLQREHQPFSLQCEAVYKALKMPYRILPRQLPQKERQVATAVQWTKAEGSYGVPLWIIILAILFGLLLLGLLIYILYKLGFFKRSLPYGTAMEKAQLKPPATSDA
T1 sequence (P05556 21-798): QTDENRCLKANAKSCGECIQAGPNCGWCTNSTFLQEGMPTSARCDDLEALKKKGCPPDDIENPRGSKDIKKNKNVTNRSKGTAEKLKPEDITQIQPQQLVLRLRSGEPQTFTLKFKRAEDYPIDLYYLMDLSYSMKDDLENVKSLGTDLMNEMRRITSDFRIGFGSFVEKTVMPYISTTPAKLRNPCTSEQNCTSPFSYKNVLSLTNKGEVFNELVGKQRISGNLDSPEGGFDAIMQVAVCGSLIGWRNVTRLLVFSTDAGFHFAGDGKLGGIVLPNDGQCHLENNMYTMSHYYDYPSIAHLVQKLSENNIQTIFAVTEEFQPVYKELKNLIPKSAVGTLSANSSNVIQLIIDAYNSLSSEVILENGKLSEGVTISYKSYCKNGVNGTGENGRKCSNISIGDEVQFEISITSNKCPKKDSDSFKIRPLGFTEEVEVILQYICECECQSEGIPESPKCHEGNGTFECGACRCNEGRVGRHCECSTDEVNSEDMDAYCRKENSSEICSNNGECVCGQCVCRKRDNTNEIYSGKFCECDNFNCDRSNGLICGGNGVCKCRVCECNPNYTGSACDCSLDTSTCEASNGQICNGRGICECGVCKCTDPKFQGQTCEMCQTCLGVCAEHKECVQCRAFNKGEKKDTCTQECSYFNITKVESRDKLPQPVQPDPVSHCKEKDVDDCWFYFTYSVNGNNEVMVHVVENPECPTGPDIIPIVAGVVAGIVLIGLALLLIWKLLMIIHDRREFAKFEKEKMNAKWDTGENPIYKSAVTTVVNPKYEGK

For `C[C@@H]1NC(=O)[C@H](Cc2c[nH]c3ccccc23)NC(=O)[C@H](C)NC(=O)[C@H]([C@@H](C)O)NC(=O)[C@H](CCC(=O)O)NC(=O)[C@H](C)NC(=O)[C@H](CCCNC(=N)N)NC(=O)[C@@H](N)CSSC[C@@H](C(=O)O)NC1=O` [H-C∗RAETAWAC∗-OH] (H-CRAETAWAC-OH; disulfide 1-9), the Ki on integrin α5β1 (setting [5]) was 16 ± 1 nM; at integrin α5β1 (setting [6]), 17 nM and 15 nM.

As to “FProp-C^*RRETAWAC^*-OH: non-radioactive reference compound, N-terminal (RS)-2-fluoropropionyl conjugate of the lead peptide ({(RS)‑2‑fluoropropionyl}-CRRETAWAC-OH; disulfide N-9)”, in the series with integrin α5β1, the “Suppression of the binding of [125I]echistatin to immobilised integrin α5β1” value is given as “fully suppress”.

On to “[^18F]FProp-Cys^*-Arg-Arg-Glu-Thr-Ala-Trp-Ala-Cys^*-OH ({(18F)fluoropropionyl}-CRRETAWAC-OH; disulfide N-9) [[^18F]FProp-C^*RRETAWAC^*-OH, 18F-labelled radiopeptide tracer for integrin α5β1]”, for which, in series [1], the “Protein bound activity in human serum” value is given as “below 6 % of the total incubated activity”. In addition, in series [2], the “Serum stability (percentage printed in Figure 2)” value stood at 97.1%. Also, the “Specific binding and internalisation (cell uptake)” value in series [3] was “specific binding and internalisation”. The “Specific uptake (cell uptake)” value in series [4] is recorded as “no specific uptake”.

Regarding `CC(F)C(=O)N[C@H]1CSSC[C@@H](C(=O)O)NC(=O)[C@H](C)NC(=O)[C@H](Cc2c[nH]c3ccccc23)NC(=O)[C@H](C)NC(=O)[C@H]([C@@H](C)O)NC(=O)[C@H](CCC(=O)O)NC(=O)[C@H](CCCNC(=N)N)NC(=O)[C@H](CCCNC(=N)N)NC1=O` (some centres unmarked) [FProp-C∗RRETAWAC∗-OH (1)] ({Propanoyl(2-F)}-CRRETAWAC-OH; disulfide 1-9), the Ki was 44 ± 3 nM on integrin α5β1 (setting [7]); 41 nM and 47 nM on integrin α5β1 (setting [8]); more than 50000 nM on integrin αIIbβ3; more than 50000 nM at integrin αvβ3.

Consider `CC(F)C(=O)N[C@H]1CSSC[C@@H](C(=O)O)NC(=O)[C@H](C)NC(=O)[C@H](Cc2c[nH]c3ccccc23)NC(=O)[C@H](C)NC(=O)[C@H]([C@@H](C)O)NC(=O)[C@H](CCC(=O)O)NC(=O)[C@H](CCCNC(=N)N)NC(=O)[C@H](CCCNC(=N)N)NC1=O` (some centres unmarked) [FProp-C∗RRETAWAC∗-OH (2)] ({Propanoyl(2-F)}-CRRETAWAC-OH; disulfide 1-9), for which the Ki at integrin α5β1 (setting [7]) is 77 ± 50 nM; at integrin α5β1 (setting [8]), 127 nM and 26 nM; at integrin αIIbβ3 (read-out: Binding affinity (Ki) αIIbβ3, immobilized integrin, 125I-echistatin as radioligand), more than 50000 nM; at integrin αvβ3 (read-out: Binding affinity (Ki) αvβ3, immobilized integrin, 125I-echistatin as radioligand) it was more than 50000 nM.

For the molecule `C[C@@H]1NC(=O)[C@H](Cc2c[nH]c3ccccc23)NC(=O)[C@H](C)NC(=O)[C@H]([C@@H](C)O)NC(=O)[C@H](CCC(=O)O)NC(=O)[C@H](CCCNC(=N)N)NC(=O)[C@H](CCCNC(=N)N)NC(=O)[C@@H](N)CSSC[C@@H](C(=O)O)NC1=O` [H-C∗RRETAWAC∗-OH, H-Cys^*-Arg-Arg-Glu-Thr-Ala-Trp-Ala-Cys^*-OH] (H-CRRETAWAC-OH; disulfide 1-9), the inhibitory constant (Ki) at integrin α5β1 (setting [5]) was 5.3 ± 4.1 nM; at integrin α5β1 (setting [6]) it was 10 nM and 3.9 nM and 2.1 nM; on integrin αvβ3 (immobilized integrin, 125I-echistatin as radioligand, read-out: Binding affinity (Ki) αvβ3), more than 50000 nM. At integrin α5β1, the “Suppression of the binding of [125I]echistatin to immobilised integrin α5β1” value is recorded as “fully suppress”. The IC50 in the series with α5β1 is 8 nM.

These data come from publication PMC4211326, “H-CRRETAWAC-OH, a Lead Structure for the Development of Radiotracer Targeting Integrin α 5 β 1?” (BioMed Research International, 2014).
